# Measurements taken from patent publication US20070105162A1, “Monovalent avidin and streptavidin compositions” (Massachusetts Institute of Technology, priority 2005, published 2007).
# What was measured:
# [1] = test system: biotinylated AP-neuroligin-1 on hippocampal neurons; assay: AP-neuroligin-1 clustering in hippocampal neurons labeled with streptavidin; format: cell-based, rat; settings: two hour incubation at 37° C., Alexa Fluor 568 conjugate; ± s.e.m., n=9
# Method: HeLa cells were grown in Dulbecco's Modified Eagle Medium (DMEM) with 10% Fetal Calf Serum, 50 U/mL penicillin and 50 μg/mL streptomycin. HeLa stably expressing AP-CFP-TM or Ala-CFP-TM have been previously described (Howarth, M. et al., Proc. Natl. Acad. Sci. USA 102: 7583-7588, 2005). Dissociated primary neuronal cultures were prepared from Embryonic Day 18 or 19 (E18/19) rats and transfected with Lipofectamine 2000 at DIV6 as in Levinson et al. (Levinson, J. N. et al., J. Biol. Chem. 280: 17312-17319, 2005). […]
# Images of HeLa cells were collected on a Zeiss Axiovert 200M inverted epifluorescence microscope using a 40× oil-immersion lens and a MicroMAX CCD camera (Roper Scientific; Tucson, Ariz.). CFP (420DF20 excitation, 450DRLP dichroic, 475DF40 emission) and Alexa568 (560DF20 excitation, 585DRLP dichroic, 605DF30 emission) images were collected and analyzed using OpenLab software (Improvision; Lexington, Mass.). Fluorescence images were background-corrected. […] Images were scaled to 16 bits and analyzed in Northern Eclipse (Empix Imaging; Ontario, Canada) with user-written software. […] Results were then calculated in terms of clusters per micrometer of dendrite. For assessment of pre-synaptic terminals, clusters were determined as before and average grey levels of clusters were compared between transfected dendrites and untransfected dendrites within the same field of view. […]
# [2] = test system: biotinylated AP-CFP-TM on HeLa cells; assay: Staining of biotinylated AP-CFP-TM on HeLa with Alexa Fluor 568-conjugated streptavidins; format: cell-based; settings: Alexa Fluor 568 conjugate 10 μg/mL, 10 min at 4° C.
# Method: Enzymatic biotinylation and imaging of HeLa transfectants were performed as previously described (Howarth, M. et al., Proc. Natl. Acad. Sci. USA 102: 7583-7588, 2005), except instead of 10 μM biotin and 1 mM ATP, we added 10 μM biotin-AMP (synthesized according to Coleman and Huang; Coleman, T. M. and Huang, F. Chem. Biol. 9: 1227-1236, 2002) to give equivalent biotinylation but minimizing the risk of purinoreceptor activation by ATP (Rathbone, M. P. et al., Prog. Neurobiol. 59: 663-690, 1999). […] Biotinylation of neurons was performed at day in vitro (DIV) 8 in Hanks' Balanced Salt Solution (HBSS) (Invitrogen) with 0.2 μM biotin ligase and 10 μM biotin-AMP for 5 min at 37° C. […] Neurons were washed with NeuroBasal media (Invitrogen) supplemented with B-27 (Invitrogen), 50 U/mL penicillin, 50 μg/mL streptomycin, and 0.2 mM L-glutamine and chased in the same medium for 0 or 2 hr at 37° C. Cells were then fixed in −20° C. methanol. […]
# Images of HeLa cells were collected on a Zeiss Axiovert 200M inverted epifluorescence microscope using a 40× oil-immersion lens and a MicroMAX CCD camera (Roper Scientific; Tucson, Ariz.). CFP (420DF20 excitation, 450DRLP dichroic, 475DF40 emission) and Alexa568 (560DF20 excitation, 585DRLP dichroic, 605DF30 emission) images were collected and analyzed using OpenLab software (Improvision; Lexington, Mass.). Fluorescence images were background-corrected. […] Images were scaled to 16 bits and analyzed in Northern Eclipse (Empix Imaging; Ontario, Canada) with user-written software. […] Results were then calculated in terms of clusters per micrometer of dendrite. For assessment of pre-synaptic terminals, clusters were determined as before and average grey levels of clusters were compared between transfected dendrites and untransfected dendrites within the same field of view. […] “n” represents the number of transfected neurons for which clusters were measured. […]
# [3] = Off-rate of 3H-biotin from streptavidin (cold biotin chase); format: binding; settings: 50 μM cold biotin chase, 5 hours at 37° C., ± s.e.m.
# Method: (Green, N. M. Methods in Enzymol. 184: 51-67, 1990). Dissociation was then initiated by addition of cold biotin at a final concentration of 50 μM and time-points taken over 5 hours at 37° C. 50 μL aliquots were removed and added to 200 μL 0.2M ZnSO4 chilled on ice, followed by 200 μL 0.2 M NaOH. The protein precipitate was pelleted by centrifugation at 16,500 g for 5 min, and ^3H-biotin in the supernatant was measured by liquid scintillation counting. Data were plotted as ln(fraction bound) versus time, and fit to a straight line by linear regression. Dissociation rates were deduced from the slope of the line and the equation: ln(fraction bound)=−koff(t) where fraction bound=(total ^3H-biotin−free ^3H-biotin at timepoint)/(total ^3H-biotin−free ^3H-biotin before cold biotin chase).
# [4] = Electrospray ionization mass spectrometry: biotin molecules bound per streptavidin tetramer; format: binding
# Method: Biospin columns (Bio-Rad) were equilibrated by spinning 5 times in 500 μL of 15 mM ammonium acetate pH 7.8 at 1000 g for 2 min. Then 30-50 μL of 30 μM protein in PBS was buffer-exchanged into 15 mM ammonium acetate pH 7.8 using the pre-equilibrated Biospin columns by spinning for 20 s at 1000 g. To ensure that PBS was completely removed, the flow-through was again buffer-exchanged with a second pre-equilibrated column for 20 s. This procedure also removed free biotin when the starting 30 μM streptavidin forms were incubated with 200 μM biotin. Less than 2 min before introducing into the mass spectrometer, the buffer-exchanged samples were diluted with a solution of 1:1 15 mM ammonium acetate pH 7.8 and 78% acetonitrile, 0.01% trifluoroacetic acid.
# (§1) An Advion nanospray robot (Advion BioSystems, Ithica, N.Y.) with a back-pressure of 0.45 Psi introduced the samples into the mass spectrometer, an 8.5 Tesla custom-built Electrospray Ionisation-Fourier Transform Mass Spectrometer. To visualize the non-covalent tetramers and non-covalent biotin binding in the high m/z range, the following settings were used: Chirp rate=750 Hz, Amplitude=0.5 V p-p, Tube lens=200 V, Capillary heater 2 V, Quad filter=−20 V, Skimmer=0 V, Capillary offset=34 V, X-fer=−110 V, Leak gas=4.2×10^−5 Torr. The capillary heater was kept low and the Quad filter and Skimmer were kept either high or off to prevent subunit dissociation. The transfer was set to this low value of −110 V in order to visualize the high m/z region.
# The masses were calculated manually by first determining the charge state. The final mass was determined by multiplying the observed m/z by the charge and subtracting the mass corresponding to the addition of protons to give that charge. For example, for the 15+charge state of D4 an m/z of 3534.159 was obtained. (15×3534.159)-(15×1.00727) gave a mass for this ion of 52,997 Da. This calculation was repeated for each charge state and the mean and standard deviation reported. The spectra were calibrated with tetrameric streptavidin, after its monomer mass was determined under denaturing conditions (Mr=13,271.4 Da). Average masses were predicted from the DNA sequence, using the ExPASy PeptideMass Calculator (ca.expasy.org/tools/peptide-mass.html) and assuming removal of the N-terminal formyl-Methionine.
# The different tetramers were purified using a Ni-nitrilotriacetic acid (NTA) column, eluting according to the number of His6-tags with increasing concentrations of imidazole. […] The tetramer composition was further confirmed by boiling the samples before loading on SDS-PAGE, to determine the ratio of A to D subunits (FIG. 1D), and by electrospray ionization mass spectrometry. In Table 1 (Schwartz, B. L. et al., J. of the Amer. Soc. for Mass Spec. 6: 459-465, 1995) the observed mass (±s.d.), determined by Electrospray Ionization-Mass Spectrometry, is compared to the mass predicted from the sequence. From the change (±s.e.m.) upon addition of biotin (mass 244.31), we determined how many biotin molecules were bound to each tetramer.
# Electrospray ionization mass spectrometry was used to characterize the number of biotin molecules bound per tetramer. Spectra of the different streptavidin tetramers with or without biotin were acquired. […] The other chimeric tetramers bound one biotin per A subunit.
# [5] = Electrospray ionization mass spectrometry: biotin molecules bound per avidin tetramer; format: binding; settings: spectra with or without biotin
# Method: Biospin columns (Bio-Rad) are equilibrated by spinning 5 times in 500 μL of 15 mM ammonium acetate pH 7.8 at 1000 g for 2 min. Then 30-50 μL of 30 μM protein in PBS is buffer-exchanged into 15 mM ammonium acetate pH 7.8 using the pre-equilibrated Biospin columns by spinning for 20 s at 1000 g. To ensure that PBS is completely removed, the flow-through is again buffer-exchanged with a second pre-equilibrated column for 20 s. This procedure also removes free biotin when the starting 30 μM avidin forms are incubated with 200 μM biotin. Less than 2 min before introducing into the mass spectrometer, the buffer-exchanged samples are diluted with a solution of 1:1 15 mM ammonium acetate pH 7.8 and 78% acetonitrile, 0.01% trifluoroacetic acid.
# as §1, with “introduces” for “introduced”, “are” for “were”, “is” for “was”
# The masses are calculated manually by first determining the charge state. The final mass is determined by multiplying the observed m/z by the charge and subtracting the mass corresponding to the addition of protons to give that charge. This calculation is repeated for each charge state and the mean and standard deviation reported. The spectra are calibrated with tetrameric avidin, after its monomer mass is determined under denaturing conditions. […]
Substance,AP-neuroligin-1 clusters per micrometer of dendrite [1] [clusters/μm],Alexa staining of biotinylated AP-CFP-TM [2],off-rate from biotin [3],"# biotins (bound to each tetramer) ([4]; from mass change upon addition of biotin, 30 μM protein, 200 μM biotin)",biotin binding per tetramer by mass spectrometry (in words) ([4]; spectra with or without biotin),biotin binding per avidin tetramer by mass spectrometry (in words) [5]
wild-type streptavidin: Wild-type core streptavidin tetramer with 4 biotin binding sites (SEQ ID NO:2) [reference compound],0.266±0.011,detected equally well,5.17±0.25×10^−5 s^−1,–,–,–
"A4: Wild-type streptavidin with a His6-tag, four Alive subunits (SEQ ID NO:4) [Tetramer A4]",–,–,–,4,all four subunits,all four subunits
